Assay results taken from US8367715B2, “Pyrazole derivatives, preparation thereof, and therapeutic use thereof” (priority 2009, dated 2013).

Legend:
FLT1 = FLT1 (Homo sapiens, UniProt P17948); experiment: FLT1 kinase phosphorylation activity by radioactive labeling; format: biochemical; conditions: read-out: FLT1, concentration that inhibits 50% of the kinase activity
Protocol: 3. […] The inhibition of the FLT1 activity is calculated and expressed as percentage of inhibition relative to the control activity determined in the absence of compound. The percentage of inhibition corresponding to each concentration of molecules is calculated thus: % inhibition=(mean CPM of the control wells−CPM of each)

VEGFR3 = VEGFR3 (Homo sapiens, UniProt P35916); experiment: VEGFR3 kinase inhibition (Table 1); format: biochemical; conditions: read-out: VEGFR3, concentration that inhibits 50% of the kinase activity
human hepatocytes = experiment: Intrinsic clearance using human hepatocytes; format: in vitro ADME; conditions: for intrinsic clearance value: 5 μM, 0-24 hours; for inter-individual variability of intrinsic clearance: cryopreserved and fresh donor preparations
Protocol: Evaluation of the intrinsic clearance of the compounds using human hepatocytes: experimental protocol.
NB: The in vitro test described below on human liver cells is used to predict an important pharmacokinetic parameter: the metabolization by the liver for a given compound when it is administered to man.
Incubations of cryopreserved preparations of human hepatocytes (from IVT: IVT-TLN-180608 from In Vitro Technologies, inc. Baltimore, Md., USA) and fresh preparations of human hepatocytes (from Biopredic: HEP200239) were carried out in plates comprising 48 collagen-coated wells.
The kinetics were initiated by the addition, to the culture medium, of the compounds at a final concentration of 5 μM, in the absence or in the presence of 10 μM ketoconazole (CYP3A4 inhibitor). The incubation volume is 100 μl, the incubation time: 0-24 hours (standard kinetic points: 0-0.5-1-2-4-6-8-24 hours).
The kinetics were stopped by addition of acetonitrile/water, with corticosterone, as an internal standard. The cells were detached then lysed. The intracellular and extracellular media were recombined and frozen (−20° C.) in order to be stored until the LC-MS/MS analysis.
The combined extracellular and intracellular media were defrosted, submitted to ultrasound action, agitated with a vortex and centrifuged at 3000 g for 20 minutes. The supernatants were injected and analysed by LC-MS/MS.
The maximum initial in vitro rate was calculated for the specific metabolites of the P450 cytochromes and expressed in nmol/hour/million of cells. V=[concentration at T(n)−concentration at T(n−1)]/[T(n)−T(n−1)]
The intrinsic clearance was determined and expressed in ml/hour/million of cells Clint=dose/AUC0-24 h Dose=amount at T(0)(nmol/million of cells)
AUC0-24 h: calculated by WinNonlin, with a non-compartmental analysis modeling an intravenous injection of bolus type
From IVT: ● IVT, TLN group: person
From Biopredic: ● HEP200239: person, unknown

B16 melanoma = experiment: In vivo antitumour activity against B16 melanoma grafted subcutaneously in mice, oral administration; conditions: for T − C in days 750 mg: tumours reaching 750 mg
Text: This activity of the compounds of the invention on […] tumours was studied on the B16 melanoma. […]
A product is considered to be active if log10 cell kill is greater than or equal to 0.7. A product is considered to be very active if log10 cell kill is greater than 2.8.
The animals bearing the tumours are randomized before being subjected to the various treatments and controls. In the case of treatment of tumours of the present invention, the treatment was started at an early stage, 3 to 4 days after implantation. […]
The tumours are measured two or three times a week until the tumour reaches approximately 2 g or until the death of the animal if the latter occurs before the tumour reaches 2 g. The animals are autopsied at the time of sacrifice.
The antitumour activity is determined according to the various parameters recorded.

[1] = PO 62 mg/kg/adm, days 4-14 (2x/d)
[2] = PO 99 mg/kg/adm, days 4-14 (2x/d)
[3] = PO 160.0 mg/kg/adm, days 4-14 (2x/d)
[4] = PO 61.5 mg/kg/adm, day 3-10 (2x/d)
[5] = PO 99.2 mg/kg/adm, day 3-10 (2x/d)

Sequence of FLT1 (P17948 27-1338, species assumed): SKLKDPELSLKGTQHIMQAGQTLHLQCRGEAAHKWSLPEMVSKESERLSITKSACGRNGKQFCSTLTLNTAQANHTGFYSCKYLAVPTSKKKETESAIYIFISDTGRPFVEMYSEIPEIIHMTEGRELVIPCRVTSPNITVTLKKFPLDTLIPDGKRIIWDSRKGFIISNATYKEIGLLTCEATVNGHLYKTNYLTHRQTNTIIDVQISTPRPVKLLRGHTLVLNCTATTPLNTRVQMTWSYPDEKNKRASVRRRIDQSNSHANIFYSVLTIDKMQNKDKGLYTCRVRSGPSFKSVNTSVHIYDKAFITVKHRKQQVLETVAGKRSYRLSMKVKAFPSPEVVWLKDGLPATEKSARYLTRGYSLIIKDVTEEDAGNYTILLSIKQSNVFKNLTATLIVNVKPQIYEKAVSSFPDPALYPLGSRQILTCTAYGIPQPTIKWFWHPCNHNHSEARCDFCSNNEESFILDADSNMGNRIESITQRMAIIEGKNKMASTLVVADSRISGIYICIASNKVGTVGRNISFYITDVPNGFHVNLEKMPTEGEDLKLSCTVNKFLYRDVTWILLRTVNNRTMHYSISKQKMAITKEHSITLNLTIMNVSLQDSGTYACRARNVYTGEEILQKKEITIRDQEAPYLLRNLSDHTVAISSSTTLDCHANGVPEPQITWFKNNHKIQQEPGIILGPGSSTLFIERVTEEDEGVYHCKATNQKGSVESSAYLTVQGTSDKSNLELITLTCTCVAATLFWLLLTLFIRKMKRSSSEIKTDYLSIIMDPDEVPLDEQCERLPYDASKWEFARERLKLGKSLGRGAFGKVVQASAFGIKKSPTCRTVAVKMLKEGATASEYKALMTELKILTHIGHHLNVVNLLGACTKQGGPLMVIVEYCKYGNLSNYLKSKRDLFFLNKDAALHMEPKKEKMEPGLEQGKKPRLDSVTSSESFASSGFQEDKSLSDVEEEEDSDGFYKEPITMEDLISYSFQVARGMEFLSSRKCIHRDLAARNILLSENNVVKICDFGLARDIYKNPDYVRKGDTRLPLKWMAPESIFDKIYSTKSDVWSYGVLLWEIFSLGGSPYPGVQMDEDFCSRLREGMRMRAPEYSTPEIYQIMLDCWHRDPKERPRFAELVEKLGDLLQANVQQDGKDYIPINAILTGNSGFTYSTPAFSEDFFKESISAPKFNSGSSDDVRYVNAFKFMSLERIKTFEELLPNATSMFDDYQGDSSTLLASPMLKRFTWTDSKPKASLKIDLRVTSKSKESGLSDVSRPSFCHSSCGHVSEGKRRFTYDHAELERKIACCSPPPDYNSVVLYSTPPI
Sequence of VEGFR3 (P35916 25-1363, species assumed): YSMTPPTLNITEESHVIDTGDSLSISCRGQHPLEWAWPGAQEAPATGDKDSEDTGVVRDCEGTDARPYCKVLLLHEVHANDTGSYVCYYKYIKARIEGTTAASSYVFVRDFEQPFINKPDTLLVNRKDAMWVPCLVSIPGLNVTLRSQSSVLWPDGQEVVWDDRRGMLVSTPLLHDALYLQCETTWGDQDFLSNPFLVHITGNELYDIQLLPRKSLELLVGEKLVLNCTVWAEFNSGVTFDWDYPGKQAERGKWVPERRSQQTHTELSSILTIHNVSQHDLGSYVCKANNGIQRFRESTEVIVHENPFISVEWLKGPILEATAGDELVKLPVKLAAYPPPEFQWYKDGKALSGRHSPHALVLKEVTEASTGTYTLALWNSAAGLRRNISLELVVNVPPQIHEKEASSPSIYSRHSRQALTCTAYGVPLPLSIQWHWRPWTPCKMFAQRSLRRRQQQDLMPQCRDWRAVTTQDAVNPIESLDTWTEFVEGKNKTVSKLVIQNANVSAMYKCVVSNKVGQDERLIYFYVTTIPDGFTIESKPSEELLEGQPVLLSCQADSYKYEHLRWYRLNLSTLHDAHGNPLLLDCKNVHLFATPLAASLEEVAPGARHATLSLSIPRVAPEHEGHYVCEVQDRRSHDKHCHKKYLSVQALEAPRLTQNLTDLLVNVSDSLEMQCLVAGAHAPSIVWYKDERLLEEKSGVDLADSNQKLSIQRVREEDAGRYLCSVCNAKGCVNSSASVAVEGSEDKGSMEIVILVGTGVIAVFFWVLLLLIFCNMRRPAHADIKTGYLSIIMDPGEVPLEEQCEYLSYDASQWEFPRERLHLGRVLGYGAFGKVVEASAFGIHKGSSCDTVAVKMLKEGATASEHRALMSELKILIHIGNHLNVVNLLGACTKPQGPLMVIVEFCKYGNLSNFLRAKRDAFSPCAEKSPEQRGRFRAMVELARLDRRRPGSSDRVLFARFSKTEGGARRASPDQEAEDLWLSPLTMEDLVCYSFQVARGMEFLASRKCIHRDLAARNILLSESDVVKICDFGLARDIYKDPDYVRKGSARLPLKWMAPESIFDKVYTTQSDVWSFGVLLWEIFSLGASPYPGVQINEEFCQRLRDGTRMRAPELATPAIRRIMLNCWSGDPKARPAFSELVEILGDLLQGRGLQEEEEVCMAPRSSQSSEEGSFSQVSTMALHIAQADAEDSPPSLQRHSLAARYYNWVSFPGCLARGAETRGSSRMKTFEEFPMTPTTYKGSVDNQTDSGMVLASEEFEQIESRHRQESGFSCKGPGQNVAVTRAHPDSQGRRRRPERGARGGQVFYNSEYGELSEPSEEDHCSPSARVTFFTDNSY

In the case of Cl.NC(=O)c1n[nH]cc1NCc1cc(F)cc(NC(=O)Nc2ccc(C(F)(F)F)cc2Cl)c1 [Example 1, 4-{3-[3-(2-Chloro-4-trifluoromethylphenyl)ureido]-5-fluorobenzylamino}-1H-pyrazole-3-carboxamide hydrochloride], the IC50 (FLT1) is reported as 3 nM, the IC50 (VEGFR3) is reported as 3 nM and the “classification of the intrinsic clearance” value (human hepatocytes) is reported as “intermediate (Clint<0.040 ml·h^−1·10^−6 cell: intermediate intrinsic clearance)”. The intrinsic clearance value (human hepatocytes) was 0.057 ml/hour/million of cells, the “inter-individual variability of intrinsic clearance” value (human hepatocytes) was “low” and the Comments (B16 melanoma; PO 44 mg/kg/adm, day 4-14) was “Inactive”. For the same compound, the “Death due to the product (day of death)” value (B16 melanoma; PO 44 mg/kg/adm, day 4-14, total 481 mg/kg, BCM-1948) was 0/5, the “Average weight of the tumour in mg on day 13” value (“Average weight … on day 13” below) (B16 melanoma; PO 44 mg/kg/adm, day 4-14) was 686 mg and the “T/C in % day 13” value (B16 melanoma; PO 44 mg/kg/adm, day 4-14) was 51%. For the same compound, the “% BWC (day of low point)” value (B16 melanoma; PO 44 mg/kg/adm, day 4-14, low point day 15) was “+10.6 (15) %”, the Comments (B16 melanoma; [1]) was “Active” and the “Total log cell kill” value (B16 melanoma; [1]) was 2.3. The “Death due to the product (day of death)” value (B16 melanoma; PO 62 mg/kg/adm, days 4-14 (2x/d), total 1232 mg/kg, BCM-1948) was 0/5, the “Average weight … on day 13” value (B16 melanoma; [1]) was 128 mg and the “T/C in % day 13” value (B16 melanoma; [1]) was 10%. For the same compound, the “% BWC (day of low point)” value (B16 melanoma; PO 62 mg/kg/adm, days 4-14 (2x/d), low point day 5) was “+1.8 (5) %”, the “T − C in days 750 mg” value (B16 melanoma; [1]) was 6.2 days and the Comments (B16 melanoma; [2]) was “Active”. The “Total log cell kill” value (B16 melanoma; [2]) was 2.3, the “Death due to the product (day of death)” value (B16 melanoma; PO 99 mg/kg/adm, days 4-14 (2x/d), total 1966 mg/kg, BCM-1948) was 0/5 and the “Average weight … on day 13” value (B16 melanoma; [2]) was 72 mg. The “T/C in % day 13” value (B16 melanoma; [2]) was 5%, the “% BWC (day of low point)” value (B16 melanoma; PO 99 mg/kg/adm, days 4-14 (2x/d), low point day 5) was −1.0 (5) % and the “T − C in days 750 mg” value (B16 melanoma; [2]) was 6.2 days. For the same compound, the “Total log cell kill” value (B16 melanoma; [3]) was 2.6, the “Death due to the product (day of death)” value (B16 melanoma; PO 160.0 mg/kg/adm, days 4-14 (2x/d), total 3178 mg/kg, BCM-1948) was 0/5 and the Comments (B16 melanoma; PO 160.0 mg/kg/adm, days 4-14 (2x/d), HDT = highest dose tested) was “HDT active”. For the same compound, the “Average weight … on day 13” value (B16 melanoma; [3]) was 23 mg, the “T/C in % day 13” value (B16 melanoma; [3]) was 2% and the “% BWC (day of low point)” value (B16 melanoma; PO 160.0 mg/kg/adm, days 4-14 (2x/d), low point day 6) was −2.3 (6) %. For the same compound, the “T − C in days 750 mg” value (B16 melanoma; [3]) was 6.8 days.
Cl.NC(=O)c1n[nH]cc1NCc1cc(F)cc(NC(=O)Nc2ccc(C(F)(F)F)cc2F)c1 [Example 2, 4-{3-[3-(2-Fluoro-4-trifluoromethylphenyl)ureido]-5-fluorobenzylamino}-1H-pyrazole-3-carboxamide hydrochloride] was tested, and the IC50 (FLT1) was 1.3 nM, the “classification of the intrinsic clearance” value (human hepatocytes) was “intermediate (Clint<0.040 ml·h^−1·10^−6 cell: intermediate intrinsic clearance)” and the intrinsic clearance value (human hepatocytes) was 0.055 ml/h/million of cells. The “inter-individual variability of intrinsic clearance” value (human hepatocytes) was “low”, the Comments (B16 melanoma; PO 44.0 mg/kg/adm, day 3-10) was “Active” and the “Total log cell kill” value (B16 melanoma; PO 44.0 mg/kg/adm, day 3-10) was 1.0. For the same compound, the “Death due to the product (day of death)” value (B16 melanoma; PO 44.0 mg/kg/adm, day 3-10, total 352.0 mg/kg, BCM-1979) was 0/6, the “Average weight of the tumour in mg on day 11” value (shortened to “Average weight … on day 11”) (B16 melanoma; PO 44.0 mg/kg/adm, day 3-10) was 201 mg and the “T/C in % day 11” value (B16 melanoma; PO 44.0 mg/kg/adm, day 3-10) was 27%. The “% BWC (day of low point)” value (B16 melanoma; PO 44.0 mg/kg/adm, day 3-10, low point day 11) was “+6.6 (11) %”, the “T − C in days 750 mg” value (B16 melanoma; PO 44.0 mg/kg/adm, day 3-10) was 3.0 days and the Comments (B16 melanoma; [4]) was “Active”. The “Total log cell kill” value (B16 melanoma; [4]) was 1.7, the “Death due to the product (day of death)” value (B16 melanoma; PO 61.5 mg/kg/adm, day 3-10 (2x/d), total 984 mg/kg, BCM-1979) was 0/6 and the “Average weight … on day 11” value (B16 melanoma; [4]) was 46 mg. The “T/C in % day 11” value (B16 melanoma; [4]) was 6%, the “% BWC (day of low point)” value (B16 melanoma; PO 61.5 mg/kg/adm, day 3-10 (2x/d), low point day 11) was “+3.9 (11) %” and the “T − C in days 750 mg” value (B16 melanoma; [4]) was 5.0 days. The “Total log cell kill” value (B16 melanoma; [5]) was 1.8, the “Death due to the product (day of death)” value (B16 melanoma; PO 99.2 mg/kg/adm, day 3-10 (2x/d), total 1587.2 mg/kg, BCM-1979) was 0/6 and the Comments (B16 melanoma; PO 99.2 mg/kg/adm, day 3-10 (2x/d), HNTD = highest nontoxic dose) was “HNTD active”. The “Average weight … on day 11” value (B16 melanoma; [5]) was 0 mg, the “T/C in % day 11” value (B16 melanoma; [5]) was 0% and the “% BWC (day of low point)” value (B16 melanoma; PO 99.2 mg/kg/adm, day 3-10 (2x/d), low point day 11) was −8.1 (11) %. The “T − C in days 750 mg” value (B16 melanoma; [5]) was 5.4 days, the Comments (B16 melanoma; PO 160.0 mg/kg/adm, day 3-10 (2x/d)) was “Toxic” and the “Death due to the product (day of death)” value (B16 melanoma; PO 160.0 mg/kg/adm, day 3-10 (2x/d), total 2560.0 mg/kg, BCM-1979, days of death 10, 2d11, 13, 2d14) was 6/6. The “% BWC (day of low point)” value (B16 melanoma; PO 160.0 mg/kg/adm, day 3-10 (2x/d), low point day 13) was −26.5 (13) %.
